The source of these data is US5270206A, “Enzymatic resolution of endo-bicyclo[2.2.1]heptan-2-ol and derived pharmaceutical agents” (Pfizer Inc., priority 1992, dated 1993).

In test [1] the test system is phosphodiesterases prepared from cerebral cortices of rats. The following applies: phosphodiesterases from rat cerebral cortices; noted at page 25 of W087/06576; cited from earlier work.
The test system of test [2] is antigen-induced skin edema. The test can be described thus: Inhibition of Skin Edema in Guinea Pigs Sensitized to Ovalbumin. The class given is in vivo, guinea pig. As to conditions: 32 mg/Kg oral, two guinea pigs, intradermal ovalbumin challenge one hour after dosing, read after twenty minutes. The protocol:
Four guinea pigs (Hartley, male, 350-400 g) were sensitized with anti-ovalbumin IgGI antibody. Two guinea pigs were orally dosed with 32 mg/Kg of the test compound and two other guinea pigs were dosed with vehicle (2% Tween-80). One-hour after dosing, each guinea pig was injected intraveneously with 1 ml of Evan Blue (7 mg/ml) and then his skin was challenged intradermally with 0.1 ml of ovalbumin (0.1%) or PBS. Twenty minutes after challenge, the skin was removed and skin edematous site (circular blue spots at challenge sites) was examined visually.

In the next test the target is PDEIV. The test can be described thus: Inhibition of Pulmonary Phosphodiesterase (PDEIV). As to conditions: guinea pig lung PDEIV, 1 μM [3H]-cAMP, 37° C., 10 minutes; read-out: IC50 (concentration inhibiting 50% of specific hydrolysis of [3H]cAMP to [3H]5'AMP). It is filed as biochemical. As to the method: Lung tissue from guinea pigs was placed in a homogenization buffer solution (20 mM Bistris, 5 mM 2-mercaptoethanol, 2 mM benzamidine, 2 mM EDTA, 50 mM sodium acetate, pH 6.5) at a concentration of 10 ml/gm of tissue. The tissue was homogenized using a Tekmar Tissumizer at full speed for 10 seconds. Phenylmethylsulfonyl fluoride (PMSF, 50 mM in 2-propanol) was added to the buffer immediately prior to homogenization to give a final PMSF concentration of 50 μM. The homogenate was centrifuged at 12,000×g for 10 minutes at 4° C. The supernatant was filtered through gauze and glass wool and then applied to a 17×1.5 cm column of DEAE-Sepharose CL-6B, pre-equilibrated with homogenization buffer, at 4° C. A flow rate of 1 ml/min was used. After the supernatant had passed through the column, the column is washed with a volume of homogenization buffer at least two times that of the supernatant. […] Fractions were saved based on specific PDEIV activity, determined by [3H]cAMP hydrolysis and the ability of a […]. […]
The reaction tubes were shaken and placed in a water bath (37° C.) for 10 minutes, at which time the reaction was stopped by placing the tubes in a boiling water bath for 2 minutes. […] After vortexing, 1 ml of the elution was added to 3 ml Atomlight scintillation fluid in an appropriate vial, vortexed, and counted for [3H].
Percent inhibition is determined by the formula: [formula] […]

Test [3] relates to eosinophil migration into sensitized lung tissue. The test can be described thus: Inhibition of eosinophil migration into sensitized lung tissue challenged with antigen in guinea pigs (EPO response in lung lavage). It is filed as in vivo, guinea pig. The following applies: Cavia porcellus, po, guinea pigs sensitized with anti-OA IgG1, dosed P.O., ovalbumin aerosol, lung lavage after 18 hours, read-out: ED50 (inhibition of specific EPO response due to antigen challenge). The protocol: Normal Hartley guinea pigs (300-350 grams) delivered from Charles River Laboratories were housed 5-7 days before sensitization. Guinea pigs were then sensitized with 0.5 mg/kg anti-OA IgGl or saline as control. After 48-72 hours, guinea pigs were dosed P.O. in groups of six animals each with compounds at up to 32 mg/kg using 2% Tween 80 as vehicle. After 1-1.5 hours the animals were injected i.p. with 5 mg/kg pyrilamine. Thirty minutes following pyrilamine administration, animals were exposed to 10 minutes of a 0.1% ovalbumin (OA) aerosol followed by a 15 minute cloud decay period in a Tri-R Airborne Infection Apparatus (Compression air flow=20 L/min, main air flow=8.4 L/min). Guinea pigs were removed from the apparatus and caged for 18 hours prior to sacrifice and the following lung lavage procedure. […]
The aliquoted sample with Triton was diluted with 1 ml PBS/0.1% Triton buffer (pH 7.0). […] The O.D. of the mixture was measured at 490 nm, with background O.D. (blank tube) subtracted out.
Duplicate O.D. readings were averaged to obtain a single value for each animal. Average O.D. +/- standard error is calculated using the six obtained values within each group of animals. Specific EPO response due to antigen challenge is calculated by: […]
Percent inhibition of specific EPO response due to drug pretreatment is calculated by: [formula]

For orientation: ED50 means the midpoint of the dose-response relation. For `COc1ccc(C2CNC(=O)NC2)cc1O[C@H]1C[C@@H]2CC[C@H]1C2` (relative stereo) [5-(3-(exo-bicyclo[2.2.1]hept-2-yloxy)-4-methoxyphenyl)-3,4,5,6-tetrahydropyrimidin-2(1H)-one], the “in vitro activity as an inhibitor of phosphodiesterases” value in test [1] was “possesses in vitro activity as an inhibitor”. The “intensity and area of blue spots (skin edema) at antigen-challenged sites vs vehicle-dosed animals” value in test [2] is on record as “markedly reduced”. In addition, the IC50 on PDEIV came to 500 nM. Moreover, the ED50 in test [3] amounted to 10 mg/kg.
